± gives the expanded uncertainty stated by the source.
Legend:
[1] = 101.3 kPa, Liquid
[2] = xn = mol fraction of the nth substance listed; details: 101.3 kPa, Liquid, x2 = 0

| mass density ([1]; 293.15 K) | speed of sound ([1]; 293.15 K) | viscosity ([1]; 293.15 K) | mass density ([1]; 298.15 K) | speed of sound ([1]; 298.15 K) | viscosity ([1]; 298.15 K) | mass density ([1]; 303.15 K) | speed of sound ([1]; 303.15 K) | viscosity ([1]; 303.15 K) | mass density ([2]; 293.15 K) | speed of sound ([2]; 293.15 K) | viscosity ([2]; 293.15 K) | mass density ([2]; 298.15 K) | speed of sound ([2]; 298.15 K) | viscosity ([2]; 298.15 K) | mass density ([2]; 303.15 K) | speed of sound ([2]; 303.15 K) | viscosity ([2]; 303.15 K) | SMILES |
| --- | --- | --- | --- | --- | --- | --- | --- | --- | --- | --- | --- | --- | --- | --- | --- | --- | --- | --- |
| 791.9 ± 0.46 kg/m3 | 1121 ± 1 m/s | 0.585 ± 0.008 mPa·s | 787.2 ± 0.47 kg/m3 | 1104 ± 1 m/s | 0.545 ± 0.008 mPa·s | 782.48 ± 0.47 kg/m3 | 1088 ± 1 m/s | 0.508 ± 0.007 mPa·s |  |  |  |  |  |  |  |  |  | CO [methanol] |
|  |  | 1.003 ± 0.013 mPa·s |  |  | 0.89 ± 0.012 mPa·s |  |  | 0.797 ± 0.011 mPa·s |  |  |  |  |  |  |  |  |  | O [water] |
|  |  |  |  |  |  |  |  |  | 791.9 ± 0.46 kg/m3 | 1121 ± 1 m/s | 0.585 ± 0.008 mPa·s | 787.2 ± 0.47 kg/m3 | 1104 ± 1 m/s | 0.545 ± 0.008 mPa·s | 782.48 ± 0.47 kg/m3 | 1088 ± 1 m/s | 0.508 ± 0.007 mPa·s | CO [methanol] + CC(=O)O |
|  |  |  |  |  |  |  |  |  | 900.52 ± 0.3 kg/m3 | 1163 ± 1 m/s | 0.452 ± 0.007 mPa·s | 894.43 ± 0.31 kg/m3 | 1140 ± 1 m/s | 0.426 ± 0.006 mPa·s | 888.3 ± 0.32 kg/m3 | 1118 ± 1 m/s | 0.403 ± 0.006 mPa·s | CCOC(C)=O [ethyl acetate] + CC(=O)O |
| 900.52 ± 0.3 kg/m3 | 1163 ± 1 m/s | 0.452 ± 0.007 mPa·s | 894.43 ± 0.31 kg/m3 | 1140 ± 1 m/s | 0.426 ± 0.006 mPa·s | 888.3 ± 0.32 kg/m3 | 1118 ± 1 m/s | 0.403 ± 0.006 mPa·s |  |  |  |  |  |  |  |  |  | CCOC(C)=O [ethyl acetate] |
| 1049.3 ± 0.57 kg/m3 | 1149 ± 2 m/s | 1.211 ± 0.016 mPa·s | 1043.65 ± 0.56 kg/m3 | 1132 ± 2 m/s | 1.115 ± 0.015 mPa·s | 1038 ± 0.56 kg/m3 | 1115 ± 2 m/s | 1.034 ± 0.014 mPa·s |  |  |  |  |  |  |  |  |  | CC(=O)O [acetic acid] |
| 933.56 ± 0.53 kg/m3 | 1174 ± 2 m/s | 0.386 ± 0.006 mPa·s | 926.98 ± 0.53 kg/m3 | 1151 ± 2 m/s | 0.367 ± 0.006 mPa·s | 920.34 ± 0.53 kg/m3 | 1128 ± 2 m/s | 0.348 ± 0.006 mPa·s |  |  |  |  |  |  |  |  |  | COC(C)=O [methyl ethanoate] |
| 789.75 ± 0.46 kg/m3 | 1162 ± 1 m/s | 1.187 ± 0.015 mPa·s | 785.46 ± 0.47 kg/m3 | 1145 ± 1 m/s | 1.082 ± 0.014 mPa·s | 781.15 ± 0.47 kg/m3 | 1128 ± 1 m/s | 0.987 ± 0.013 mPa·s |  |  |  |  |  |  |  |  |  | CCO [ethanol] |

— the NIST ThermoML archive (doi:10.1021/je0342825)
